{"source": "patent US20220117972A1", "about": "“USE OF PPAR-DELTA AGONISTS IN THE TREATMENT OF MITOCHONDRIAL MYOPATHY” (Reneo Pharmaceuticals, Inc., priority 2019, published 2022)", "origin": "cited, not measured here", "test_system": "control myoblasts", "conditions": "cultured patient muscle cells study; cited from earlier work", "data": [{"smiles": "Cc1cc(SCc2sc(-c3ccc(C(F)(F)F)c(F)c3)nc2C)ccc1OCC(=O)O", "note": "[GW 072]", "values": [{"measurement": "FAO stimulation", "result": "stimulated FAO"}]}, {"smiles": "CC(C)(Sc1ccc(CCN(CCCCC2CCCCC2)C(=O)NC2CCCCC2)cc1)C(=O)O", "note": "[GW 7647]", "values": [{"measurement": "FAO stimulation", "result": "to a lower extent"}]}]}
